Data as given in patent US20080159962A1, “Use of Inhibitors of the Renin-Angiotensin System for the Treatment of Lung Injuries” (priority 2005, published 2008).
Where two headings read alike, the source gives them in different places.

Tests used:
Type in all cases: in vivo
AT1R [1] = target: T1, AT1R (Mus musculus, UniProt P29754); experiment: AT1R inhibitor study in acid-induced ALI of ace2 KO mice; settings: acid-treated ace2 KO mice
Description: (§1) Experimental murine ALI models: For acid aspiration-induced ALI, 2.5-3 month old mice were anaesthetized with ketamin (75 mg/kg) and xylazine (20 mg/kg) i.p., tracheostomized and ventilated with a volume control constant flow ventilator (Voltek Enterprises, Canada). Volume recruitment manoeuvre (VRM) (25 cmH2O, 3 sec) was performed to standardize volume history and measurements were made as baseline. After intratracheal instillation of HCl (pH=1.5; 2 ml/kg), followed by a VRM (35 cmH2O, 3 seconds), animals were ventilated for 3 hrs (FIO2 1.0). Saline-treated groups served as controls. […] All animals were monitored throughout an 18-hrs recovery period. […] In all experimental ALI models, total PEEP (PEEPt) and plateau pressure (Pplat) were measured at the end of expiratory and inspiratory occlusion, respectively, and elastance was calculated as Pplat minus PEEPt)/VT every 30 minutes during the ventilation periods. […]
Assessment of blood oxygenation, pulmonary oedema, and pulmonary vascular permeability: At the end of the experiments, blood samples were obtained from the left heart ventricle and PaO2 was measured (Ciba-Corning Model 248, Bayer, Leverkusen, Germany) to assess arterial blood oxygenation as an indicator for respiratory failure. To assess pulmonary oedemas, the lung wet/dry weight ratios were calculated. […]

AT1R [2] = target: T1, AT1R
BK2 = target: T2, BK2 (Mus musculus, UniProt P32299); experiment: Bradykinin receptor inhibitor study (BK2) in acid aspiration-induced ALI of ace2 KO mice; settings: acid-treated ace2 KO mice, 1.5 mg/kg i.p. 30 min before surgical procedures, 3 hrs (FIG. 17)
T2 construct: from tissue; host or cells: live ace2 KO mice, lung elastance read-out
T2 sequence (P32299 1-392): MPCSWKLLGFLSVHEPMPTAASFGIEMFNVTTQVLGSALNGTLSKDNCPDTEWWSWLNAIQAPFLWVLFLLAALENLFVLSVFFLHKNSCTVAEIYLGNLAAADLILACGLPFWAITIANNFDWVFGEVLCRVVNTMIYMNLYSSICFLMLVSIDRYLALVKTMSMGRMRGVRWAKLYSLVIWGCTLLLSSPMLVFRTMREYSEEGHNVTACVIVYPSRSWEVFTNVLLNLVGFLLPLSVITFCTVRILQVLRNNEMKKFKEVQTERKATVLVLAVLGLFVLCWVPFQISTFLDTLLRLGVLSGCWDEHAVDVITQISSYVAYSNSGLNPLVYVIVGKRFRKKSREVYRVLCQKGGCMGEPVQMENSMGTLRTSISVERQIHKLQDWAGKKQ
Description: Murine acid aspiration-induced lung injury model: For acid aspiration-induced ALI, 2.5-3 month old mice were anaesthetized with ketamin (75 mg/kg) and xylazine (20 mg/kg) i.p., tracheostomized and ventilated with a volume control constant flow ventilator (Voltek Enterprises). Volume recruitment manoeuvre (VRM) (25 cmH2O, 3 sec) was performed to standardize volume history and measurements were made as baseline. After intratracheal instillation of HCl (pH=1.5; 2 ml/kg), followed by a VRM (35 cmH2O, 3 seconds), animals were ventilated for 3 hrs (FIO2 1.0). Total PEEP (PEEPt) and plateau pressure (Pplat) were measured at the end of expiratory and inspiratory occlusion, respectively, and elastance was calculated as Pplat minus PEEPt)/VT every 30 minutes during the ventilation periods.
Bradykinin receptors inhibitor studies: Ace2 KO mice (2.5-3 months old) received the BK1 inhibitor (des Arg HOE, Sigma, 1.5 mg/kg), the BK2 inhibitor (HOE 140, Sigma, 1.5 mg/kg), or control vehicle i.p. 30 min before surgical procedures. After HCl instillation, animals were randomized into groups: (1) ace2 KO, acid, vehicle control; (2) ace2 KO, acid, BK1 inhibitor; (3) ace2 KO, acid, BK2 inhibitor. Animals were then ventilated for 3 hrs and analyzed as above.

AT2R = target: T3, AT2R (Mus musculus, UniProt P35374); experiment: AT2R inhibitor study in acid-induced ALI of ace2 KO mice; settings: acid-treated ace2 KO mice, 15 mg/kg i.p., 3 hrs (FIG. 10b)
T3 construct: from tissue; host or cells: live ace2 KO mice, lung elastance read-out
T3 sequence (P35374 1-363): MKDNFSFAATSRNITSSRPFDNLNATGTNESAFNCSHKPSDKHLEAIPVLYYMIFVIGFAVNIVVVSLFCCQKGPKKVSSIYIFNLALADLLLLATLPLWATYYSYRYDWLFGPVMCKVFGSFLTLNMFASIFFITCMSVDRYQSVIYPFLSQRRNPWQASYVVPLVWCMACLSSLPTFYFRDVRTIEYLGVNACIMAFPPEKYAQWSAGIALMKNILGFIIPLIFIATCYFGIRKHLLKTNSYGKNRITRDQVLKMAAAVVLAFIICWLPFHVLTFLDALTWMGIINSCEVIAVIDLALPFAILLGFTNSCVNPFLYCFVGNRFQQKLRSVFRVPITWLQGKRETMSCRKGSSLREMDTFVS
Description: as §1
AT1R/AT2R inhibitor studies: Mice (2.5-3 months old) received the AT1R inhibitor Losartan (15 mg/kg), the AT2R inhibitor PD123.319 (15 mg/kg), or control vehicle i.p. 30 min before surgical procedures. […] Animals were then ventilated for 3 hrs and analyzed as above.

T1 sequence (P29754 whole entry): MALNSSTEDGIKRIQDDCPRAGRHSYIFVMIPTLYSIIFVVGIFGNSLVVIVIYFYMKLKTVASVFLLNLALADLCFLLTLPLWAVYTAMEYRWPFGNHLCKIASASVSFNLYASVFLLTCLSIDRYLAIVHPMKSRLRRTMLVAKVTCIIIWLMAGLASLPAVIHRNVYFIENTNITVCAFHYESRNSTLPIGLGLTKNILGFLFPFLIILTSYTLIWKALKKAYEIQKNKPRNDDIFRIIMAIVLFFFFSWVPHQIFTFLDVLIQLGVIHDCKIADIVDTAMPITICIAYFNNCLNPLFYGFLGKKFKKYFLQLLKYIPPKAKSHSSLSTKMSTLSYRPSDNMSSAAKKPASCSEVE

CCCCc1nc(Cl)c(CO)n1Cc1ccc(-c2ccccc2-c2nn[nH]n2)cc1 [Losartan]
severity of ALI (lung elastance) (AT1R [1]; 15 mg/kg i.p. 30 min before surgical procedures, 3 hrs (FIG. 10b)): attenuated the severity of ALI | acid-induced pulmonary oedema (wet to dry weight ratio) (AT1R [1]; 15 mg/kg, 3 hrs (FIG. 16b)): attenuated acid-induced pulmonary oedema | acute severe lung injury (lung elastance) (AT1R [2]; acid plus Spike-Fc challenged WT mice, 15 mg/kg (FIG. 5c)): attenuates SARS Spike-mediated severe acute lung injury | acute severe lung injury (lung elastance) (AT1R [2]; mouse, in vivo): attenuated acute severe lung injury | pulmonary oedema (wet to dry weight ratio) (AT1R [2]; mouse, in vivo): attenuated pulmonary oedema

NC(N)=NCCC[C@@H](N)C(=O)N[C@@H](CCCN=C(N)N)C(=O)N1CCC[C@H]1C(=O)N1C[C@H](O)C[C@H]1C(=O)NCC(=O)N[C@@H](Cc1cccs1)C(=O)N[C@@H](CO)C(=O)N1Cc2ccccc2C[C@@H]1C(=O)N1[C@H](C(=O)N[C@@H](CCCN=C(N)N)C(=O)O)C[C@@H]2CCCC[C@@H]21 [BK2 inhibitor, DArg[Hyp^3,Thi^5,DTic^7,Oic^8]-bradykinin]
lung failure assessed by pulmonary elastance (BK2): improved the lung failure

Cc1cc(Cn2cnc3c2C[C@@H](C(=O)O)N(C(=O)C(c2ccccc2)c2ccccc2)C3)ccc1N(C)C [PD123.319]
severe acute lung injury phenotypes (lung elastance) (AT2R): had no apparent effect
